Laboratory results published in patent US12252488B2 (Nimbus Saturn, Inc., priority 2021, dated 2025).

Each compound was assayed against T1, HPK1 (Homo sapiens, UniProt Q92918) (assay: HPK1 biochemical enzyme assay (microfluidic mobility shift assay)). Settings: 1000 uM (1 mM) ATP; Caliper mobility shift; 1.5 nM HPK1; 30 min preincubation; read-out: HPK1 1000UMATP caliper IC50.
T1 construct: purchased Invitrogen
In short: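 IC50 values, grouped into activity categories, come from 10-point titrations (top final 3 μM) preincubated 30 min with 1.5 nM enzyme and substrate at pH 7.4. ATP (1 mM), substrate (1 μM) and MgCl2 (5 mM) then added; after 60 min at RT, product separated by microfluidic mobility shift.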

T1 sequence (Q92918 whole entry): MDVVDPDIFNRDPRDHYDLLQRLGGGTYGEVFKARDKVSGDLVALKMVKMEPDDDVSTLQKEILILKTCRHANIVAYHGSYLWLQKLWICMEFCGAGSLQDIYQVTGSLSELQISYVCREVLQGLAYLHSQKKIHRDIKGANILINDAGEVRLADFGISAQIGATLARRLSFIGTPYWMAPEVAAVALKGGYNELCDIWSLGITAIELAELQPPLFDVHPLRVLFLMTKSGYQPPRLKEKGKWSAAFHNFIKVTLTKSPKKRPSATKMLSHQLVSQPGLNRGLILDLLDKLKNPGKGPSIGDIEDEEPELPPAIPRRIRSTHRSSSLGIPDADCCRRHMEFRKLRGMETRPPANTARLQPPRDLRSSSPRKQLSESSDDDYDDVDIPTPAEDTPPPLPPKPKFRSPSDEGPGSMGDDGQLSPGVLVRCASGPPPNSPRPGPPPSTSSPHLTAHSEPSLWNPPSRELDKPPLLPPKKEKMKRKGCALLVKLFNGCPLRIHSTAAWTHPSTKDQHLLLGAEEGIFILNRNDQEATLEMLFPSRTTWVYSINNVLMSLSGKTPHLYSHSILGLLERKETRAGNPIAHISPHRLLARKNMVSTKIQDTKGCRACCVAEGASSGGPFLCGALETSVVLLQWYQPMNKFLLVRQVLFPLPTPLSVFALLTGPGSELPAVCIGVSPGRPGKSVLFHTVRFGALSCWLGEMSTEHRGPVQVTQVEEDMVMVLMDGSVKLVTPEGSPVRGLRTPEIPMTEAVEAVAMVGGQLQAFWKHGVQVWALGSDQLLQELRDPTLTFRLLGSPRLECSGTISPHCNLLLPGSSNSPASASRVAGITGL

SMILES | IC50 [µM]
COc1cccc(F)c1-c1cc(Nc2ccc(N3CCC(O)CC3)cn2)c2c(=O)[nH]ccc2n1 [I-185, 2-(2-fluoro-6-methoxy-phenyl)-4-[[5-(4-hydroxy-1-piperidyl)-2-pyridyl]amino]-6H-1,6-naphthyridin-5-one] | 0.1 to 1
CC(C)Oc1cc(-c2cc(Nc3ccc(N4CCC(O)CC4)cn3)c3c(=O)[nH]ccc3n2)c(F)cc1C(=O)N1CCCCC1 [I-186, 2-[2-fluoro-5-isopropoxy-4-(piperidine-1-carbonyl)phenyl]-4-[[5-(4-hydroxy-1-piperidyl)-2-pyridyl]amino]-6H-1,6-naphthyridin-5-one] | ≤ 0.1
COc1cc(-c2cc(Nc3ccc(N4CCNCC4)cn3)c3c(=O)[nH]ccc3n2)ccc1C(=O)N1CCCCC1 [I-187, 2-[3-methoxy-4-(piperidine-1-carbonyl)phenyl]-4-[(5-piperazin-1-yl-2-pyridyl)amino]-6H-1,6-naphthyridin-5-one] | 0.1 to 1
COCCOC1CN(c2ccc(Nc3cc(-c4cc(OC)c(C(=O)N5CCCCC5)cc4F)nc4cc[nH]c(=O)c34)nc2)C1 [I-188, 2-[2-fluoro-5-methoxy-4-(piperidine-1-carbonyl)phenyl]-4-[[5-[3-(2-methoxy-ethoxy)azetidin-1-yl]-2-pyridyl]amino]-6H-1,6-naphthyridin-5-one] | ≤ 0.1
COc1cc(-c2cc(Nc3ccc(N4[C@H](C)COC[C@H]4C)cn3)c3c(=O)[nH]ccc3n2)c(F)cc1C(=O)N1CCCCC1 [I-190, 4-[[5-[(3R, 5R)-3,5-dimethyl-morpholin-4-yl]-2-pyridyl]amino]-2-[2-fluoro-5-methoxy-4-(piperidine-1-carbonyl)phenyl]-6H-1,6-naphthyridin-5-one] | 0.1 to 1
O=c1[nH]ccc2nc(-c3cc4c(cc3F)CCC4O)cc(Nc3ccc(N4CCC(O)CC4)cn3)c12 (stereo not drawn) [I-192, 2-(6-fluoro-3-hydroxy-indan-5-yl)-4-[[5-(4-hydroxy-1-piperidyl)-2-pyridyl]amino]-6H-1,6-naphthyridin-5-one] | 0.1 to 1
COc1cc(-c2cc(Nc3ccc(N4CCN(C)CC4)cn3)c3c(=O)[nH]ccc3n2)c(F)cc1C(=O)N1CCCCC1 [I-193, 2-[2-fluoro-5-methoxy-4-(piperidine-1-carbonyl)phenyl]-4-[[5-(4-methyl-piperazin-1-yl)-2-pyridyl]amino]-6H-napthyridin-5-one] | 0.1 to 1
Cc1cc(-c2cc(Nc3ccc(N4CCC(O)CC4)cn3)c3c(=O)[nH]ccc3n2)c(F)cc1CN1CCCCC1 [I-194, 2-[2-fluoro-5-methyl-4-(1-piperidyl-methyl)phenyl]-4-[[5-(4-hydroxy-1-piperidyl)-2-pyridyl]amino]-6H-1,6-naphthyridin-5-one] | ≤ 0.1
COc1cc(-c2cc(Nc3ccc(N4CCC(O)CC4)cn3)c3c(=O)[nH]ccc3n2)ccc1C(=O)N1CCCCC1 [I-195, 4-[[5-(4-hydroxy-1-piperidyl)-2-pyridyl]amino]-2-[3-methoxy-4-(piperidine-1-carbonyl)phenyl]-6H-1,6-naphthyridin-5-one] | > 1
CCOc1cc(-c2cc(Nc3ccc(N4CCC(O)CC4)cn3)c3c(=O)[nH]ccc3n2)c(F)cc1C(=O)N1CCCCC1 [I-196, 2-[5-ethoxy-2-fluoro-4-(piperidine-1-carbonyl)phenyl]-4-[[5-(4-hydroxy-1-piperidyl)-2-pyridyl]amino]-6H-1,6-naphthyridin-5-one] | 0.1 to 1
COc1cc(-c2cc(Nc3cnn(C)c3)c3c(=O)[nH]ccc3n2)c(F)cc1C(=O)N1CCCCC1 [I-199, 2-[2-fluoro-5-methoxy-4-(piperidine-1-carbonyl)phenyl]-4-[(1-methyl-pyrazol-4-yl)amino]-6H-1,6-naphthyridin-5-one] | 0.1 to 1
CNC1CCc2cc(F)c(-c3cc(Nc4ccc(N5CCC(O)CC5)cn4)c4c(=O)[nH]ccc4n3)cc21 (stereo not drawn) [I-200, 2-[6-fluoro-3-(methyl-amino)indan-5-yl]-4-[[5-(4-hydroxy-1-piperidyl)-2-pyridyl]amino]-6H-1,6-naphthyridin-5-one] | ≤ 0.1
COc1cc(F)c(-c2cc(Nc3ccc(N4CCC(O)CC4)cn3)c3c(=O)[nH]ccc3n2)cc1CN1CCCCC1 [I-202, 2-[2-fluoro-4-methoxy-5-(1-piperidyl-methyl)phenyl]-4-[[5-(4-hydroxy-1-piperidyl)-1-2-pyridyl]amino]-6H-1,6-naphthyridin 5-one] | ≤ 0.1
O=c1[nH]ccc2nc(-c3ccc4c(c3F)CCC4O)cc(Nc3ccc(N4CCC(O)CC4)cn3)c12 (stereo not drawn) [I-203, 2-(4-fluoro-1-hydroxy-indan-5-yl)-4-[[5-(4-hydroxy-1-piperidyl)-2-pyridyl]amino]-6H-1,6-naphthyridin-5-one] | ≤ 0.1
CC1(C(=O)Nc2ccc(-c3cc(Nc4ccc(N5CCC(O)CC5)cn4)c4c(=O)[nH]ccc4n3)c(F)c2)COC1 [I-205] | ≤ 0.1
COc1cc(-c2cc(Nc3ccc(N4CCC(O)CC4)cn3)c3c(=O)[nH]ccc3n2)c(F)cc1C(=O)N1CCCC1 [I-206, 2-[2-fluoro-5-methoxy-4-(pyrrolidine-1-carbonyl)phenyl]-4-[[5-(4-hydroxy-1-piperidyl)-2-pyridyl]amino]-6H-naphthyridin-5-one] | ≤ 0.1
COc1cc(-c2cc(Nc3ccc(N4CCNCC4)cn3)c3c(=O)[nH]ccc3n2)c(F)cc1NC(=O)C1CCCCC1 [I-208, N-[5-fluoro-2-methoxy-4-[5-oxo-4-[(5-piperazin-1-yl-2-pyridyl)amino]-6H-1,6-naphthyridin-2-yl]phenyl] cyclohexane carboxamide] | 0.1 to 1
COc1cc(-c2cc(Nc3ccc(N4CCC(OC)CC4)cn3)c3c(=O)[nH]ccc3n2)c(F)cc1C(=O)N1CCCCC1 [I-209, 2-[2-fluoro-5-methoxy-4-(piperidine-1-carbonyl)phenyl]-4-[[5-(4-methoxy-1-piperidyl)-2-pyridyl]amino]-6H-1,6-naphthyridin-5-one] | 0.1 to 1
CN(C(=O)C1(C)COC1)c1ccc(-c2cc(Nc3ccc(N4CCC(O)CC4)cn3)c3c(=O)[nH]ccc3n2)c(F)c1 [I-210, N-[3-fluoro-4-[4-[[5-(4-hydroxy-1-piperidyl)-2-pyridyl]amino]-5-oxo-6H-1,6-naphthyridin-2-yl]phenyl]-N,3-dimethyl-oxetane-3-carboxamide] | ≤ 0.1
CN1C(=O)Cc2cc(-c3cc(Nc4ccc(N5CCC(O)CC5)cn4)c4c(=O)[nH]ccc4n3)cnc21 [I-213, 4-[[5-(4-hydroxy-1-piperidyl)-2-pyridyl]amino]-2-(1-methyl-2-oxo-3H-pyrrolo[2,3-b]pyridin-5-yl)-6H-1,6-naphthyridin-5-one] | 0.1 to 1
CN(C(=O)C1(C)CC1)c1ccc(-c2cc(Nc3ccc(N4CCC(O)CC4)cn3)c3c(=O)[nH]ccc3n2)c(F)c1 [I-214, N-[3-fluoro-4-[4-[[5-(4-hydroxy-1-piperidyl)-2-pyridyl]amino]-5-oxo-6H-1,6-naphthyridin-2-yl]phenyl]-N,1-dimethyl-cyclopropane-carboxamide] | 0.1 to 1

Now from value to compound:

IC50 [µM] | SMILES
0.1 to 1 | COCCOC1CN(c2ccc(Nc3cc(-c4ccc(NC(=O)C5CCCCC5)cc4F)nc4cc[nH]c(=O)c34)nc2)C1 [I-189, N-[3-fluoro-4-[4-[[5-[3-(2-methoxy-ethoxy)azetidin-1-yl]-2-pyridyl]amino]-5-oxo-6H-1,6-naphthyridin-2-yl]phenyl] cyclohexane carboxamide]
≤ 0.1 | C[C@@H]1COC[C@@H](C)N1c1ccc(Nc2cc(-c3ccc(NC(=O)C4CCCCC4)cc3F)nc3cc[nH]c(=O)c23)nc1 [I-191, N-[4-[4-[[5-[(3R,5R)-3,5-dimethyl-morpholin-4-yl]-2-pyridyl]amino]-5-oxo-6H-1,6-naphthyridin-2-yl]-3-fluoro-phenyl] cyclohexane-carboxamide]
0.1 to 1 | Cc1cc(-c2cc(Nc3ccc(N4CCNCC4)cn3)c3c(=O)[nH]ccc3n2)c(F)cc1NC(=O)C1CCCCC1 [I-197, N-[5-fluoro-2-methyl-4-[5-oxo-4-[(5-piperazin-1-yl-2-pyridyl)amino]-6H-1,6-naphthyridin-2-yl]phenyl] cyclohexane carboxamide]
0.1 to 1 | COc1cc(-c2cc(Nc3ccc(C4CC4)cn3)c3c(=O)[nH]ccc3n2)c(F)cc1C(=O)N1CCCCC1 [I-198, 4-[(5-cyclopropyl-2-pyridyl)amino]-2-[2-fluoro-5-methoxy-4-(piperidine-1-carbonyl)phenyl]-6H-1,6-naphthyridin-5-one]
≤ 0.1 | O=C(Nc1ccc(-c2cc(Nc3ccc(N4CC(F)(F)C4)cn3)c3c(=O)[nH]ccc3n2)c(F)c1)C1CCCCC1 [I-201, N-[4-[4-[[5-(3,3-difluoro-azetidin-1-yl)-2-pyridyl]amino]-5-oxo-6H-1,6-naphthyridin-2-yl]-3-fluoro-phenyl] cyclohexane-carboxamide]
≤ 0.1 | COC1CCN(c2ccc(Nc3cc(-c4ccc(NC(=O)C5CCCCC5)cc4F)nc4cc[nH]c(=O)c34)nc2)CC1 [I-204, N-[3-fluoro-4-[4-[[5-(4-methoxy-1-piperidyl)-2-pyridyl]amino]-5-oxo-6H-1,6-naphthyridin-2-yl]phenyl] cyclohexane carboxamide]
≤ 0.1 | O=C(Nc1ccc(-c2cc(Nc3ccc(N4C[C@H]5COC[C@H]5C4)cn3)c3c(=O)[nH]ccc3n2)c(F)c1)C1CCCCC1 [I-207, N-[4-[4-[[5-[(3aR,6aS)-1,3,3a,4,6,6a-hexahydro-furo[3,4-c]pyrrol-5-yl]-2-pyridyl]amino]-5-oxo-6H-1,6-naphthyridin-2-yl]-3-fluoro-phenyl] cyclohexane-carboxamide]
> 1 | CC1(C(=O)Nc2ccc(-c3cc(Nc4ccc(N5CCC(O)CC5)cn4)c4c(=O)[nH]ccc4n3)c(F)c2)CCC1 [I-211, N-[3-fluoro-4-[4-[[5-(4-hydroxy-1-piperidyl)-2-pyridyl]amino]-5-oxo-6H-1,6-naphthyridin-2-yl]phenyl]-1-methyl-cyclobutane-carboxamide]
0.1 to 1 | O=C(Nc1ccc(-c2cc(Nc3ccc(C4CC4)cn3)c3c(=O)[nH]ccc3n2)c(F)c1)C1CCCCC1 [I-212, N-[4-[4-[(5-cyclopropyl-2-pyridyl)amino]-5-oxo-6H-1,6-naphthyridin-2-yl]-3-fluoro-phenyl] cyclohexane-carboxamide]
